Experimental data: PubChem BioAssay (NCI)
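Compound exposure: 48 hours, 5 concentrations, 96-well plates. TGI denotes the concentration required for complete inhibition of growth.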

Assays:
Assay in all cases: inhibition of tumour cell growth, NCI panel, 48 h
NCI/ADR-RES ovarian = system: NCI/ADR-RES ovarian
OVCAR-5 ovarian = system: OVCAR-5 ovarian
IGROV1 ovarian = system: IGROV1 ovarian
HL-60(TB) leukemia = system: HL-60(TB) leukemia
UO-31 renal = system: UO-31 renal
SW-620 colon = system: SW-620 colon
CAKI-1 renal = system: CAKI-1 renal
DU-145 prostate = system: DU-145 prostate
OVCAR-4 ovarian = system: OVCAR-4 ovarian
SK-MEL-28 melanoma = system: SK-MEL-28 melanoma
OVCAR-3 ovarian = system: OVCAR-3 ovarian
M14 melanoma = system: M14 melanoma
KM12 colon = system: KM12 colon
NCI-H522 lung = system: NCI-H522 lung
HCC-2998 colon = system: HCC-2998 colon
MDA-MB-435 = system: MDA-MB-435
SNB-75 CNS = system: SNB-75 CNS
COLO 205 colon = system: COLO 205 colon
MALME-3M melanoma = system: MALME-3M melanoma
LOX IMVI melanoma = system: LOX IMVI melanoma
A549 NSCLC = system: A549 NSCLC
UACC-257 melanoma = system: UACC-257 melanoma
SN12C renal = system: SN12C renal
SNB-19 CNS = system: SNB-19 CNS
T-47D breast = system: T-47D breast
CCRF-CEM leukemia = system: CCRF-CEM leukemia
U251 CNS = system: U251 CNS
SK-OV-3 ovarian = system: SK-OV-3 ovarian
SF-295 CNS = system: SF-295 CNS
MDA-N = system: MDA-N
ACHN renal = system: ACHN renal
HOP-62 NSCLC = system: HOP-62 NSCLC
K-562 leukemia = system: K-562 leukemia
RPMI-8226 leukemia = system: RPMI-8226 leukemia
MCF7 breast = system: MCF7 breast
NCI-H226 lung = system: NCI-H226 lung
SF-539 CNS = system: SF-539 CNS
786-0 renal = system: 786-0 renal
OVCAR-8 ovarian = system: OVCAR-8 ovarian
PC-3 prostate = system: PC-3 prostate
HCT-116 colon = system: HCT-116 colon
MOLT-4 leukemia = system: MOLT-4 leukemia
TK-10 renal = system: TK-10 renal
HCT-15 colon = system: HCT-15 colon
SR leukemia = system: SR leukemia
BT-549 breast = system: BT-549 breast
HOP-92 NSCLC = system: HOP-92 NSCLC
HS 578T breast = system: HS 578T breast
RXF 393 renal = system: RXF 393 renal
SF-268 CNS = system: SF-268 CNS
SK-MEL-5 melanoma = system: SK-MEL-5 melanoma
NCI-H460 lung = system: NCI-H460 lung
NCI-H23 lung = system: NCI-H23 lung
UACC-62 melanoma = system: UACC-62 melanoma
MDA-MB-231 breast = system: MDA-MB-231 breast
A498 renal = system: A498 renal
EKVX NSCLC = system: EKVX NSCLC
HT29 colon = system: HT29 colon
SK-MEL-2 melanoma = system: SK-MEL-2 melanoma

SMILES: COc1ccc(/C=N/c2nc3cc4sc(/N=C/c5ccc(OC)cc5)nc4cc3s2)cc1
- TGI (NCI/ADR-RES ovarian): > 100 µM
- TGI (OVCAR-5 ovarian): > 100 µM
- TGI (IGROV1 ovarian): > 100 µM
- TGI (HL-60(TB) leukemia): > 100 µM
- TGI (UO-31 renal): > 100 µM
- TGI (SW-620 colon): > 100 µM
- TGI (CAKI-1 renal): > 100 µM
- TGI (DU-145 prostate): > 100 µM
- TGI (OVCAR-4 ovarian): > 100 µM
- TGI (SK-MEL-28 melanoma): > 100 µM
- TGI (OVCAR-3 ovarian): > 100 µM
- TGI (M14 melanoma): > 100 µM
- TGI (KM12 colon): > 100 µM
- TGI (NCI-H522 lung): > 52.7 µM
- TGI (HCC-2998 colon): 71.4 µM
- TGI (MDA-MB-435): 99.5 µM
- TGI (SNB-75 CNS): > 100 µM
- TGI (COLO 205 colon): > 22.4 µM
- TGI (MALME-3M melanoma): > 100 µM
- TGI (LOX IMVI melanoma): > 100 µM
- TGI (A549 NSCLC): > 100 µM
- TGI (UACC-257 melanoma): > 100 µM
- TGI (SN12C renal): > 100 µM
- TGI (SNB-19 CNS): > 100 µM
- TGI (T-47D breast): > 100 µM
- TGI (CCRF-CEM leukemia): > 45.2 µM
- TGI (U251 CNS): > 100 µM
- TGI (SK-OV-3 ovarian): > 100 µM
- TGI (SF-295 CNS): > 100 µM
- TGI (MDA-N): > 100 µM
- TGI (ACHN renal): > 100 µM
- TGI (HOP-62 NSCLC): > 100 µM
- TGI (K-562 leukemia): > 100 µM
- TGI (RPMI-8226 leukemia): > 100 µM
- TGI (MCF7 breast): > 88.9 µM
- TGI (NCI-H226 lung): > 77.8 µM
- TGI (SF-539 CNS): > 100 µM
- TGI (786-0 renal): > 100 µM
- TGI (OVCAR-8 ovarian): > 100 µM
- TGI (PC-3 prostate): > 100 µM
- TGI (HCT-116 colon): > 100 µM
- TGI (MOLT-4 leukemia): > 100 µM
- TGI (TK-10 renal): > 94.8 µM
- TGI (HCT-15 colon): > 100 µM
- TGI (SR leukemia): > 100 µM
- TGI (BT-549 breast): > 100 µM
- TGI (HOP-92 NSCLC): > 100 µM
- TGI (HS 578T breast): > 81.8 µM
- TGI (RXF 393 renal): > 100 µM
- TGI (SF-268 CNS): > 100 µM
- TGI (SK-MEL-5 melanoma): > 100 µM
- TGI (NCI-H460 lung): > 100 µM
- TGI (NCI-H23 lung): 97.7 µM
- TGI (UACC-62 melanoma): > 100 µM
- TGI (MDA-MB-231 breast): > 100 µM
- TGI (A498 renal): > 100 µM
- TGI (EKVX NSCLC): > 100 µM
- TGI (HT29 colon): > 100 µM
- TGI (SK-MEL-2 melanoma): > 100 µM

SMILES: CC1=NN(c2nc(N)nc(C(C#N)C(=O)c3cc4c(cc3Cl)Sc3nccn3S4(=O)=O)n2)C(C)(C)C1 (configuration not stated)
- TGI (NCI/ADR-RES ovarian): > 100 µM
- TGI (OVCAR-5 ovarian): > 100 µM
- TGI (IGROV1 ovarian): > 100 µM
- TGI (HL-60(TB) leukemia): 61.1 µM
- TGI (UO-31 renal): 67.2 µM
- TGI (SW-620 colon): > 100 µM
- TGI (CAKI-1 renal): > 100 µM
- TGI (DU-145 prostate): 94.4 µM
- TGI (OVCAR-4 ovarian): > 100 µM
- TGI (SK-MEL-28 melanoma): > 100 µM
- TGI (OVCAR-3 ovarian): 57 µM
- TGI (M14 melanoma): > 100 µM
- TGI (KM12 colon): > 100 µM
- TGI (NCI-H522 lung): 69.7 µM
- TGI (HCC-2998 colon): 33.8 µM
- TGI (MDA-MB-435): > 100 µM
- TGI (SNB-75 CNS): > 100 µM
- TGI (COLO 205 colon): > 100 µM
- TGI (MALME-3M melanoma): 48.5 µM
- TGI (LOX IMVI melanoma): > 100 µM
- TGI (A549 NSCLC): > 100 µM
- TGI (UACC-257 melanoma): 48.5 µM
- TGI (SN12C renal): > 100 µM
- TGI (SNB-19 CNS): > 100 µM
- TGI (T-47D breast): 77.9 µM
- TGI (CCRF-CEM leukemia): 50.3 µM
- TGI (U251 CNS): > 100 µM
- TGI (SK-OV-3 ovarian): 51.4 µM
- TGI (SF-295 CNS): > 100 µM
- TGI (MDA-N): > 100 µM
- TGI (ACHN renal): > 100 µM
- TGI (HOP-62 NSCLC): > 100 µM
- TGI (K-562 leukemia): > 100 µM
- TGI (RPMI-8226 leukemia): 63.2 µM
- TGI (MCF7 breast): > 100 µM
- TGI (NCI-H226 lung): 90 µM
- TGI (SF-539 CNS): > 100 µM
- TGI (786-0 renal): 34 µM
- TGI (OVCAR-8 ovarian): > 100 µM
- TGI (PC-3 prostate): > 100 µM
- TGI (HCT-116 colon): > 100 µM
- TGI (MOLT-4 leukemia): 68.2 µM
- TGI (TK-10 renal): > 100 µM
- TGI (HCT-15 colon): 67.3 µM
- TGI (SR leukemia): 25 µM
- TGI (BT-549 breast): 98.6 µM
- TGI (HOP-92 NSCLC): > 100 µM
- TGI (HS 578T breast): > 100 µM
- TGI (RXF 393 renal): > 100 µM
- TGI (SF-268 CNS): > 100 µM
- TGI (SK-MEL-5 melanoma): 48.1 µM
- TGI (NCI-H460 lung): > 100 µM
- TGI (NCI-H23 lung): 37.2 µM
- TGI (UACC-62 melanoma): 66.9 µM
- TGI (MDA-MB-231 breast): 55 µM
- TGI (A498 renal): > 100 µM
- TGI (EKVX NSCLC): > 100 µM
- TGI (HT29 colon): > 100 µM
- TGI (SK-MEL-2 melanoma): 53.7 µM

SMILES: CCOP(=O)(O)C(Nc1ccc(N=Nc2ccccc2)cc1)c1ccc(C(Nc2ccc(N=Nc3ccccc3)cc2)P(=O)(O)OCC)cc1 (configuration not stated)
- TGI (NCI/ADR-RES ovarian): 73 µM
- TGI (OVCAR-5 ovarian): 53.7 µM
- TGI (IGROV1 ovarian): 47.8 µM
- TGI (HL-60(TB) leukemia): 37 µM
- TGI (UO-31 renal): > 100 µM
- TGI (SW-620 colon): 38.2 µM
- TGI (CAKI-1 renal): > 100 µM
- TGI (DU-145 prostate): > 100 µM
- TGI (OVCAR-4 ovarian): > 100 µM
- TGI (SK-MEL-28 melanoma): 33.5 µM
- TGI (OVCAR-3 ovarian): > 100 µM
- TGI (M14 melanoma): 29.6 µM
- TGI (KM12 colon): 31 µM
- TGI (NCI-H522 lung): 37.6 µM
- TGI (HCC-2998 colon): 34.3 µM
- TGI (MDA-MB-435): 32.4 µM
- TGI (SNB-75 CNS): 34.5 µM
- TGI (COLO 205 colon): 28.8 µM
- TGI (MALME-3M melanoma): 32.2 µM
- TGI (LOX IMVI melanoma): 29.6 µM
- TGI (A549 NSCLC): 88.7 µM
- TGI (UACC-257 melanoma): 70.1 µM
- TGI (SN12C renal): 46.3 µM
- TGI (SNB-19 CNS): 41.2 µM
- TGI (T-47D breast): 47.1 µM
- TGI (CCRF-CEM leukemia): 41.6 µM
- TGI (U251 CNS): 33.5 µM
- TGI (SK-OV-3 ovarian): 36.8 µM
- TGI (SF-295 CNS): 35 µM
- TGI (MDA-N): 40.8 µM
- TGI (ACHN renal): > 100 µM
- TGI (HOP-62 NSCLC): 36.3 µM
- TGI (K-562 leukemia): 35.7 µM
- TGI (RPMI-8226 leukemia): 53.8 µM
- TGI (MCF7 breast): > 100 µM
- TGI (NCI-H226 lung): 99.2 µM
- TGI (SF-539 CNS): 38.2 µM
- TGI (786-0 renal): 78.5 µM
- TGI (OVCAR-8 ovarian): 31.4 µM
- TGI (PC-3 prostate): 35.7 µM
- TGI (HCT-116 colon): 39.5 µM
- TGI (MOLT-4 leukemia): 37.2 µM
- TGI (TK-10 renal): > 100 µM
- TGI (HCT-15 colon): 47.9 µM
- TGI (SR leukemia): 42.6 µM
- TGI (BT-549 breast): 49.2 µM
- TGI (HOP-92 NSCLC): 95.1 µM
- TGI (HS 578T breast): 46.8 µM
- TGI (RXF 393 renal): 49.3 µM
- TGI (SF-268 CNS): 42.9 µM
- TGI (SK-MEL-5 melanoma): 30.7 µM
- TGI (NCI-H460 lung): 50.3 µM
- TGI (NCI-H23 lung): 64.2 µM
- TGI (UACC-62 melanoma): 35 µM
- TGI (MDA-MB-231 breast): 90.9 µM
- TGI (A498 renal): 64.8 µM
- TGI (EKVX NSCLC): 41 µM
- TGI (HT29 colon): 33.8 µM
- TGI (SK-MEL-2 melanoma): 32.8 µM
